{
  "source": "the OligoGym collection",
  "molecular_target": "SOD1",
  "details": "ASO",
  "note": "Several values for one entry are separate records, joined by “and”; a condition that tells them apart may be missing. Identical values can stand only once. After the bases stand the sugars from the 5' end (letter, count) and the backbone: PS all phosphorothioate, else s phosphorothioate and o phosphodiester by linkage. Methylation of C is not given here. e = 2'-O-(2-methoxyethyl) (MOE); k = constrained ethyl (cEt); d = 2'-deoxy (DNA)",
  "data": [
    {"sequence": "GACCACCAGTGTGCGGCCAA (sugars e5 d10 e5, PS)", "values": [
      {"measurement": "target mRNA inhibition", "setting": "HepG2, 5 µM", "value": 16, "unit": "%"}
    ]},
    {"sequence": "AGACTACATCCAAGGGA (sugars e2 k2 d9 k2 e2, PS)", "values": [
      {"measurement": "target mRNA inhibition", "setting": "HepG2, 4 µM", "value": 55, "unit": "%"}
    ]},
    {"sequence": "AGTGAGATCACAGAATCTTC (sugars e5 d10 e5, PS)", "values": [
      {"measurement": "target mRNA inhibition", "setting": "HepG2, 5 µM", "value": 30, "unit": "%"}
    ]},
    {"sequence": "CTGACAAGTTTAATACC (sugars e2 k2 d9 k2 e2, PS)", "values": [
      {"measurement": "target mRNA inhibition", "setting": "HepG2, 5 µM", "value": 36, "unit": "%"}
    ]},
    {"sequence": "TTTCTACAGCTAGCAGG (sugars e2 k2 d9 k2 e2, PS)", "values": [
      {"measurement": "target mRNA inhibition", "setting": "HepG2, 0.1875 µM", "value": 26, "unit": "%"},
      {"measurement": "target mRNA inhibition", "setting": "HepG2, 0.75 µM", "value": 68, "unit": "%"},
      {"measurement": "target mRNA inhibition", "setting": "HepG2, 3 µM", "value": 89, "unit": "%"},
      {"measurement": "target mRNA inhibition", "setting": "HepG2, 4 µM", "value": 84, "unit": "%"},
      {"measurement": "target mRNA inhibition", "setting": "HepG2, 12 µM", "value": 95, "unit": "%"}
    ]},
    {"sequence": "CCATACAGGGTTTTTAT (sugars e3 k2 d7 k2 e3, PS)", "values": [
      {"measurement": "target mRNA inhibition", "setting": "HepG2, 3 µM", "value": 1, "unit": "%"}
    ]},
    {"sequence": "TAAGTCTGGCAAAATAC (sugars e2 k2 d8 k2 e3, PS)", "values": [
      {"measurement": "target mRNA inhibition", "setting": "HepG2, 5 µM", "value": 24, "unit": "%"}
    ]},
    {"sequence": "CGCGACTACTTTATAGG (sugars e3 k2 d7 k2 e3, PS)", "values": [
      {"measurement": "target mRNA inhibition", "setting": "HepG2, 3 µM", "value": 11, "unit": "%"}
    ]},
    {"sequence": "CAGCTAGCAGGATAACA (sugars e3 k2 d7 k2 e3, PS)", "values": [
      {"measurement": "target mRNA inhibition", "setting": "HepG2, 3 µM", "value": 21, "unit": "%"}
    ]},
    {"sequence": "GAGATCACAGAATCTTC (sugars e3 k2 d7 k2 e3, PS)", "values": [
      {"measurement": "target mRNA inhibition", "setting": "HepG2, 3 µM", "value": 13, "unit": "%"}
    ]},
    {"sequence": "TTCCGAGGACTGCAACGGAA (sugars e5 d10 e5, PS)", "values": [
      {"measurement": "target mRNA inhibition", "setting": "HepG2, 4 µM", "value": 5, "unit": "%"}
    ]},
    {"sequence": "CTACAGGTACTTTAAAG (sugars e2 k2 d9 k2 e2, PS)", "values": [
      {"measurement": "target mRNA inhibition", "setting": "HepG2, 5 µM", "value": 16, "unit": "%"}
    ]},
    {"sequence": "ACGACGCAAACCAGCACCCC (sugars e5 d10 e5, PS)", "values": [
      {"measurement": "target mRNA inhibition", "setting": "HepG2, 4 µM", "value": 30, "unit": "%"}
    ]},
    {"sequence": "TGCCTCTCTTCATCCTT (sugars e3 k2 d7 k2 e3, PS)", "values": [
      {"measurement": "target mRNA inhibition", "setting": "HepG2, 3 µM", "value": 6, "unit": "%"}
    ]},
    {"sequence": "TCTGTGATTTAAGTCTG (sugars e2 k2 d9 k2 e2, PS)", "values": [
      {"measurement": "target mRNA inhibition", "setting": "HepG2, 5 µM", "value": 49, "unit": "%"}
    ]},
    {"sequence": "ACAGTGTTTAATGTTTAT (sugars e5 d8 e5, linkages s1 o3 s9 o2 s2)", "values": [
      {"measurement": "target mRNA inhibition", "setting": "A431, 0.12 µM", "value": 0, "unit": "%"},
      {"measurement": "target mRNA inhibition", "setting": "A431, 0.6 µM", "value": 18, "unit": "%"},
      {"measurement": "target mRNA inhibition", "setting": "A431, 3 µM", "value": 26, "unit": "%"},
      {"measurement": "target mRNA inhibition", "setting": "A431, 15 µM", "value": 45, "unit": "%"},
      {"measurement": "target mRNA inhibition", "setting": "HepG2, 0.222 µM", "value": 19, "unit": "%"},
      {"measurement": "target mRNA inhibition", "setting": "HepG2, 0.667 µM", "value": 30, "unit": "%"},
      {"measurement": "target mRNA inhibition", "setting": "HepG2, 2 µM", "value": "46% and 50%"},
      {"measurement": "target mRNA inhibition", "setting": "HepG2, 6 µM", "value": 70, "unit": "%"}
    ]},
    {"sequence": "AAGTGAGGACCTGCACT (sugars e3 k2 d7 k2 e3, PS)", "values": [
      {"measurement": "target mRNA inhibition", "setting": "HepG2, 3 µM", "value": 16, "unit": "%"}
    ]},
    {"sequence": "AATACAGGTCATTGAAA (sugars e3 k2 d7 k2 e3, PS)", "values": [
      {"measurement": "target mRNA inhibition", "setting": "HepG2, 3 µM", "value": 6, "unit": "%"}
    ]},
    {"sequence": "AAATTGATGATGCCCTGCAC (sugars e5 d10 e5, PS)", "values": [
      {"measurement": "target mRNA inhibition", "setting": "HepG2, 4 µM", "value": 14, "unit": "%"}
    ]},
    {"sequence": "ATCTGCTTTTTCATGGA (sugars e3 k2 d7 k2 e3, PS)", "values": [
      {"measurement": "target mRNA inhibition", "setting": "HepG2, 3 µM", "value": 42, "unit": "%"}
    ]},
    {"sequence": "CTACAGCTAGCAGGATA (sugars e2 k2 d9 k2 e2, PS)", "values": [
      {"measurement": "target mRNA inhibition", "setting": "HepG2, 0.1875 µM", "value": 30, "unit": "%"},
      {"measurement": "target mRNA inhibition", "setting": "HepG2, 0.75 µM", "value": 80, "unit": "%"},
      {"measurement": "target mRNA inhibition", "setting": "HepG2, 3 µM", "value": 93, "unit": "%"},
      {"measurement": "target mRNA inhibition", "setting": "HepG2, 4 µM", "value": 91, "unit": "%"},
      {"measurement": "target mRNA inhibition", "setting": "HepG2, 12 µM", "value": 97, "unit": "%"}
    ]},
    {"sequence": "GCTTCCCCACACCTTCA (sugars e3 k2 d7 k2 e3, PS)", "values": [
      {"measurement": "target mRNA inhibition", "setting": "HepG2, 3 µM", "value": 36, "unit": "%"}
    ]},
    {"sequence": "GTGTTTAATGTTTATCA (sugars e3 k2 d7 k2 e3, PS)", "values": [
      {"measurement": "target mRNA inhibition", "setting": "HepG2, 3 µM", "value": 37, "unit": "%"}
    ]},
    {"sequence": "CGCTGCAGGAGACTACGACG (sugars e5 d10 e5, PS)", "values": [
      {"measurement": "target mRNA inhibition", "setting": "HepG2, 4 µM", "value": 23, "unit": "%"}
    ]},
    {"sequence": "GGGCGATCCCAATTACA (sugars e2 k2 d8 k2 e3, PS)", "values": [
      {"measurement": "target mRNA inhibition", "setting": "HepG2, 4 µM", "value": 30, "unit": "%"}
    ]},
    {"sequence": "GAACATGGAATCCATGC (sugars e3 k2 d7 k2 e3, PS)", "values": [
      {"measurement": "target mRNA inhibition", "setting": "HepG2, 3 µM", "value": 9, "unit": "%"}
    ]},
    {"sequence": "CAGGATACATTTCTACA (sugars e2 k2 d9 k2 e2, PS)", "values": [
      {"measurement": "target mRNA inhibition", "setting": "HepG2, 0.1875 µM", "value": 38, "unit": "%"},
      {"measurement": "target mRNA inhibition", "setting": "HepG2, 0.75 µM", "value": 71, "unit": "%"},
      {"measurement": "target mRNA inhibition", "setting": "HepG2, 3 µM", "value": 89, "unit": "%"},
      {"measurement": "target mRNA inhibition", "setting": "HepG2, 4 µM", "value": "85% and 86%"},
      {"measurement": "target mRNA inhibition", "setting": "HepG2, 12 µM", "value": "91% and 97%"}
    ]},
    {"sequence": "CATAATAAGTGCCATAC (sugars e2 k2 d8 k2 e3, PS)", "values": [
      {"measurement": "target mRNA inhibition", "setting": "HepG2, 5 µM", "value": 32, "unit": "%"}
    ]},
    {"sequence": "AAACTATACAAATCTTC (sugars e2 k2 d8 k2 e3, PS)", "values": [
      {"measurement": "target mRNA inhibition", "setting": "HepG2, 5 µM", "value": 55, "unit": "%"}
    ]},
    {"sequence": "CCCACCGTGTTTTCTGGATA (sugars e5 d10 e5, PS)", "values": [
      {"measurement": "target mRNA inhibition", "setting": "HepG2, 5 µM", "value": "46% and 40%"}
    ]},
    {"sequence": "GGATAGAGGATTAAAGT (sugars e3 k2 d7 k2 e3, PS)", "values": [
      {"measurement": "target mRNA inhibition", "setting": "HepG2, 3 µM", "value": 14, "unit": "%"}
    ]},
    {"sequence": "CCATCTGTGATTTAAGT (sugars e2 k2 d8 k2 e3, PS)", "values": [
      {"measurement": "target mRNA inhibition", "setting": "HepG2, 5 µM", "value": 46, "unit": "%"}
    ]},
    {"sequence": "TCCATTACTTTCCTTCT (sugars e3 k2 d7 k2 e3, PS)", "values": [
      {"measurement": "target mRNA inhibition", "setting": "HepG2, 3 µM", "value": 18, "unit": "%"}
    ]},
    {"sequence": "TCACACAATTACACTTT (sugars e2 k2 d9 k2 e2, PS)", "values": [
      {"measurement": "target mRNA inhibition", "setting": "HepG2, 5 µM", "value": 39, "unit": "%"}
    ]},
    {"sequence": "CGCTAGGCCACGCCGAGGTC (sugars e5 d10 e5, PS)", "values": [
      {"measurement": "target mRNA inhibition", "setting": "HepG2, 4 µM", "value": 52, "unit": "%"}
    ]},
    {"sequence": "TTAATGTTTATCAGGAT (sugars ekekddddddddeeeee, linkages s1 o2 s9 o2 s2)", "values": [
      {"measurement": "target mRNA inhibition", "setting": "A431, 0.062 µM", "value": 6, "unit": "%"},
      {"measurement": "target mRNA inhibition", "setting": "A431, 0.185 µM", "value": 21, "unit": "%"},
      {"measurement": "target mRNA inhibition", "setting": "A431, 0.556 µM", "value": 44, "unit": "%"},
      {"measurement": "target mRNA inhibition", "setting": "A431, 1.667 µM", "value": 76, "unit": "%"},
      {"measurement": "target mRNA inhibition", "setting": "A431, 5 µM", "value": 68, "unit": "%"},
      {"measurement": "target mRNA inhibition", "setting": "A431, 15 µM", "value": 77, "unit": "%"},
      {"measurement": "target mRNA inhibition", "setting": "SH-SY5Y, 0.062 µM", "value": 0, "unit": "%"},
      {"measurement": "target mRNA inhibition", "setting": "SH-SY5Y, 0.185 µM", "value": 0, "unit": "%"},
      {"measurement": "target mRNA inhibition", "setting": "SH-SY5Y, 0.556 µM", "value": 34, "unit": "%"},
      {"measurement": "target mRNA inhibition", "setting": "SH-SY5Y, 1.667 µM", "value": 61, "unit": "%"},
      {"measurement": "target mRNA inhibition", "setting": "SH-SY5Y, 5 µM", "value": 81, "unit": "%"},
      {"measurement": "target mRNA inhibition", "setting": "SH-SY5Y, 15 µM", "value": 90, "unit": "%"}
    ]},
    {"sequence": "TGGCAAAATACAGGTCA (sugars e2 k2 d9 k2 e2, PS)", "values": [
      {"measurement": "target mRNA inhibition", "setting": "HepG2, 5 µM", "value": 43, "unit": "%"}
    ]}
  ]
}
